What was measured:
HES cells [1] = experiment: Trypan blue exclusion after cryopreservation of HES colonies in suspension; assay type: cell-based, human; conditions: DMSO 0 to 10% in freezing medium, Trypan blue (FIG. 1)
Description: In order to cryopreserve ES cells in suspension, cells were grown to approximately 1000-10,000 cell colonies on Matrigel™ or a MEF feeder layer. Average colony size was determined by counting colony number in a representative sample, then dispersing cells in the colony by treatment with 10 mg/ml dispase and counting cell number. 1 mg/ml collagenase was used to detach colonies from the plate and the colonies were resuspended in freezing medium containing FBS, DMSO and CM at varying concentrations. Cells were not dispersed during freezing. The solution was not seeded to form extracellular ice. 1 ml of 1-3×10^5 cells/ml were placed in a cryovial and frozen at approximately −1° C. per minute. Initial studies were performed by placing cells in a Nalgene Cryo 1° C. freeze container in a −80° C. freezer, and later samples were frozen in a controlled-rate freezer (Forma Scientific, Model 8026). […] After reaching −80° C., cells were stored in liquid nitrogen. HES cells were harvested from a flat-bottomed 24-well tissue culture plate coated with Matrigel™ by addition of trypsin-EDTA (0.25% trypsin, 1 mM EDTA) until colonies were completely dispersed. HES cells were resuspended in 500 μl HES medium containing 10% FBS. […] Total cell number and the fraction of cells that incorporated Trypan blue were counted on a hemacytometer. […]

HES cells [2] = experiment: Cell viability by MTT and Alamar blue assays after cryopreservation of adherent HES colonies; assay type: cell-based, human
Description: In this example, cells were grown to approximately 1000-10,000 cell colonies on Matrigel™ or a MEF feeder layer in a 24 well plate. Average colony size was determined by counting colony number in a representative sample, then dispersing cells in the colony by treatment with 10 mg/ml dispase and counting cell number. The growth medium was aspirated from each well and a top layer of Matrigel™ was poured over the adherent colonies by diluting 6 mg Matrigel™ in 12 ml CM/F+ (conditioned medium+bFGF) and adding 0.5 ml to each well of the 24 well plate. The plate was incubated at 37° C. in a humidified 5% CO2 incubator for 1 hr and the Matrigel™ solution was aspirated from the plate. Then, 0.5 ml growth medium (HES or CM/F+ was added to each well and cells were cultured in the Matrigel™ for up to 2 days. Growth medium was aspirated from each well and 0.5 ml freezing medium containing varying concentrations of FBS, DMSO, and CM was added to each well. The fresh freezing medium was made on the day of freezing. The freezing medium generally contains 10% DMSO, 30% FBS and 60% conditioned HES media. The medium on the plate was aspirated off and replaced with 0.5 ml freezing medium.
The plate was sealed with parafilm and frozen to −80° C. at −1° C. per minute. Initial studies were performed by placing cells in a parafilm-sealed Styrofoam box in a −80° C. freezer, and later samples were frozen in a controlled-rate freezer (Model 8026, Forma Scientific). […] The solution was not seeded to form extracellular ice. The plates containing the cells were then transferred to liquid nitrogen and stored 5-7 days, which was long enough to stabilize the cells but permitted a reasonable experimental throughput.
To thaw the ES cells, plates were placed in a 37° C. water bath and swirled to thaw as rapidly as possible. After thawing, 1 ml fresh CM/F+ medium was added in a drop-wise manner to each well, then aspirated. Fresh media (0.5 ml) was added to each well and the cells were incubated at 37° C. in a humidified 5% CO2 incubator. […]
HES cells were cultured grown on flat-bottomed 24-well tissue culture plates coated with Matrigel™, with 0.5 ml CM/F+ in each well. […] Within an hour, absorbance at 595 nm was measured on a plate reading spectrophotometer (TECAN Genios). A standard curve for the MTT assay (not shown) was generated by growing HES colonies to different concentrations, ranging from 5×10^4 cells per well to 2×10^6 cells per well (determined by counting dispersed cells on a hemacytometer) on a Matrigel™-coated 24 well plate.
HES cells were cultured on flat-bottomed 24-well tissue culture plates coated with Matrigel™, with 0.5 ml CM/F+ in each well. […] Then absorbance was measured on a TECAN Genios plate reader at 595 nm. […]

murine 3T3 fibroblasts = conditions: intracellular trehalose on the order of 0.2M; cited from earlier work
human keratinocytes = conditions: intracellular trehalose on the order of 0.2M; cited from earlier work
HES colonies = experiment: Colony recovery (colony count) after cryopreservation of adherent HES colonies; assay type: cell-based, human; conditions: adherent without top Matrigel layer, 5 days after thawing
Description: In addition to providing higher cell viability, cryopreservation of adherent colonies increases the number of colonies that are able to remain attached to the surface and eventually grow (i.e., higher recovery rate). […] In referring to FIG. 4, approximately 10^6 HES cells were cultured in the well of a Matrigel™-coated 24 well plate. Colonies in sample a were harvested from the plate as intact colonies (were not dispersed) and suspended in cryopreservation media containing 10% DMSO, 30% FBS, and 60% CM/F+. Samples b-e were preserved attached to the Matrigel™ layer in the same cryopreservation media. Sample b was preserved without an additional layer of Matrigel™ poured over the cells prior to freezing, c with a Matrigel™ layer poured 1 hr prior to freezing, d with a Matrigel™ layer poured 24 hr prior to freezing, and e with a Matrigel™ layer poured 48 hr prior to freezing. All samples were stored in liquid nitrogen and thawed after 3 days, then grown for 1-2 weeks. Colonies were then counted to determine colony recovery. Error bars represent SEM for at least four independent trials.
Loading cells with 35 mM trehalose for 24 hours prior to freezing, and then freezing in medium containing DMSO results in an increase in the number of adherent colonies following thawing; virtually all colonies remain attached to the surface and can grow (FIG. 10). […]

[3] = test system: hematopoeitic precursor cells; conditions: trehalose added to cryopreservation media containing DMSO and FBS; cited from earlier work
human pancreatic islets = conditions: trehalose formulations added to cryopreserved islets; cited from earlier work
HES cells [4] = experiment: Toxicity of trehalose in growth medium; assay type: cell-based, human; conditions: cell exposure to growth medium containing trehalose
[5] = test system: SSEA4 expression on HES cells; experiment: SSEA4 expression on cryopreserved HES cells by flow cytometry; assay type: cell-based, human; conditions: attached to Matrigel, loaded with 35 mM trehalose for 1 day; 10% DMSO, 30% FBS, 60% CM/F+ medium
Description: SSEA4 expression was determined by flow cytometry. After thawing, cells were allowed to grow on Matrigel™ in CM/F+ medium for 7 days, then colonies were removed from Matrigel™ by 1 mg/ml collagenase IV (GIBCO/BRL) treatment. Cells were dispersed by treatment with a 0.05% trypsin, 0.53 mM EDTA solution (GIBCO/BRL) for 5-10 minutes and filtered through a 40 μm mesh. 100 μl of the cell suspension containing 5×10^6 cells/ml was added to a sample tube and a control tube. 1 μl of MC813-70 (anti-SSEA4) (Kannagi et al. 1983) was added to the test tube and 5 μl of 1 mg/ml mouse IgG (Sigma) was added to the control tube. Tubes were vortexed and incubated on ice for 30 min. […] Samples were analyzed using a FACScan flow cytometer (Becton Dickinson) and Cellquest software (Becton Dickinson). […] The fluorescein signal was obtained through a 530/30 band pass filter and the mean fluorescence values for the IgG control and test samples were determined.
Furthermore, in addition to retention of OCT4 expression (see FIG. 6), applicants observed that when HES colonies were frozen in suspension in cryovials, adherent to Matrigel™, embedded in Matrigel™, and loaded with trehalose were able to maintain SSEA4 expression after recovery (FIG. 11, Table 1). […] The gated region for all samples was determined from the positive control (Sample A). […]

SMILES | protection from membrane rupture during cryopreservation (HES cells [1]) | increase in viability compared to DMSO alone (HES cells [2]; 35 mM trehalose loaded 24 hours, 10% DMSO and FBS above 50%, p<0.05) [%] | viability vs loading for 24 hours or not loading (HES cells [2]; 35 mM trehalose loaded 48 hours) | additional protection during freezing and thawing (HES cells [2]; 35 mM trehalose loading, 10% DMSO and FBS concentrations less than 50%) | protection during freezing and thawing (HES cells [2]; 35 mM trehalose loading, absence of DMSO) | cells surviving a freeze-thaw cycle (murine 3T3 fibroblasts) | cells surviving a freeze-thaw cycle (human keratinocytes) | colonies recovered (HES colonies; loaded with 35 mM trehalose for 24 hours) | colonies recovered (HES colonies; loaded with 35 mM trehalose for 48 hours) | increase in viability [3] | viable cell recovery (human pancreatic islets) | trehalose concentration in growth medium causing toxicity (HES cells [4]) | Percent of cells gated (SSEA4) [5]
C[S+](C)[O-] [DMSO, dimethyl sulfoxide] | protect HES cells from membrane rupture | – | – | – | – | – | – | – | – | – | – | – | –
OC[C@H]1O[C@H](O[C@H]2O[C@H](CO)[C@@H](O)[C@H](O)[C@H]2O)[C@H](O)[C@@H](O)[C@@H]1O [trehalose] | – | 25 | lower viability | no additional protection | no protection | approximately 75% | approximately 75% | 82%±5% | 48%±10% | 7-20% | doubles | greater than 35 mM | 81.5

Source: patent publication US20050106554A1, “Cryopreservation of pluripotent stem cells” (priority 2003, published 2005)
